{"source": "patent US10584350B2", "about": "“Structurally modified COI1” (Board of Trustees of Michigan State University, priority 2016, dated 2020)", "molecules": {"B1": {"name": "R496A: COI1 alanine substitution mutant at R496 (protein)", "chain": "MEDPDIKRCKLSCVATVDDVIEQVMTYITDPKDRDSASLVCRRWFKIDSETREHVTMALCYTATPDRLSRRFPNLRSLKLKGKPRAAMFNLIPENWGGYVTPWVTEISNNLRQLKSVHFRRMIVSDLDLDRLAKARADDLETLKLDKCSGFTTDGLLSIVTHCRKIKTLLMEESSFSEKDGKWLHELAQHNTSLEVLNFYMTEFAKISPKDLETIARNCRSLVSVKVGDFEILELVGFFKAAANLEEFCGGSLNEDIGMPEKYMNLVFPRKLCRLGLSYMGPNEMPILFPFAAQIRKLDLLYALLETEDHCTLIQKCPNLEVLETRNVIGDRGLEVLAQYCKQLKRLRIERGADEQGMEDEEGLVSQRGLIALAQGCQELEYMAVYVSDITNESLESIGTYLKNLCDFRLVLLDREERITDLPLDNGVRSLLIGCKKLRRFAFYLRQGGLTDLGLSYIGQYSPNVRWMLLGYVGESDEGLMEFSRGCPNLQKLEMAGCCFSERAIAAAVTKLPSLRYLWVQGYRASMTGQDLMQMARPYWNIELIPSRRVPEVNQQGEIREMEHPAHILAYYSLAGQRTDCPTTVRVLKEPI"}, "B2": {"name": "COI1A384V: modified Arabidopsis thaliana COI1 protein with valine at position 384 (SEQ ID NO:2); also names transgenic plants expressing it (protein, listed as Arabidopsis thaliana)", "chain": "MEDPDIKRCKLSCVATVDDVIEQVMTYITDPKDRDSASLVCRRWFKIDSETREHVTMALCYTATPDRLSRRFPNLRSLKLKGKPRAAMFNLIPENWGGYVTPWVTEISNNLRQLKSVHFRRMIVSDLDLDRLAKARADDLETLKLDKCSGFTTDGLLSIVTHCRKIKTLLMEESSFSEKDGKWLHELAQHNTSLEVLNFYMTEFAKISPKDLETIARNCRSLVSVKVGDFEILELVGFFKAAANLEEFCGGSLNEDIGMPEKYMNLVFPRKLCRLGLSYMGPNEMPILFPFAAQIRKLDLLYALLETEDHCTLIQKCPNLEVLETRNVIGDRGLEVLAQYCKQLKRLRIERGADEQGMEDEEGLVSQRGLIALAQGCQELEYMVVYVSDITNESLESIGTYLKNLCDFRLVLLDREERITDLPLDNGVRSLLIGCKKLRRFAFYLRQGGLTDLGLSYIGQYSPNVRWMLLGYVGESDEGLMEFSRGCPNLQKLEMRGCCFSERAIAAAVTKLPSLRYLWVQGYRASMTGQDLMQMARPYWNIELIPSRRVPEVNQQGEIREMEHPAHILAYYSLAGQRTDCPTTVRVLKEPI"}}, "key": {"[1]": {"test_system": "COI1WT/A384V-JAZ9 co-receptor", "assay": "Coreceptor pull-down assay", "type": "binding, Arabidopsis", "conditions": "plant-expressed COI1, E. coli-expressed JAZ9", "procedure": "Pull-down assays were performed with protein extracts from 4-mg pCOI1:COI1WT/A384V-4×c-Myc plants and 25 μg recombinant MBP-JAZ9-8×His. Assays were performed in the presence of JA-Ile or COR at various concentrations and incubated for 30 min at 4° C. in the binding buffer (Katsir et al., Proc Natl Acad Sci USA 105(19):7100-7105 (2008)). Eighty microliters of Ni resin (Invitrogen) were added, followed by an additional 15-min incubation period at 4° C. MBP-JAZ9-8×Hisbound Ni resin was washed three times on microcentrifuge spin columns with 0.25 mL binding buffer at 4° C. MBP-JAZ9-8×His was eluted from the resin with 100 μL of 300 mM imidazole. Proteins bound to MBP-JAZ9-8×His were analyzed by immunoblotting for the presence of COI1WT/A384V-4×c-Myc using anti-cMyc antibody. MBP-JAZ9-8×His recovered by the Ni affinity resin was detected by Coomassie blue staining."}, "JAZ9 gene expression": {"test_system": "JAZ9 gene expression", "assay": "qPCR of JA-responsive marker gene JAZ9", "type": "in vivo, Arabidopsis", "conditions": "10 μM MeJA or 0.2 μM COR, 3 h; for induction of JAZ9 expression compared with that in COI1-30 plants: COI1A384V L1 line; for JAZ9 gene expression in response to treatment compared with Col-0 or COI1WT plants: COI1A384V lines; for JAZ9 gene expression after application: Col-0 and COI1WT plants", "procedure": "(§1) Col-0 and transgenic seeds were germinated on half-strength MS medium. Five-day-old seedlings were transferred into liquid half-strength MS medium. Segregating coil-30 seeds were germinated on half-strength MS medium with 10 μM MeJA. and MeJA-resistant 5-d-old seedlings were transferred into liquid half-strength MS medium. Next, 10 μM MeJA (Sigma), 0.2 μM COR or 0.1% DMSO were applied to 12-d-old seedlings. Samples were collected after 3 h and total RNA was extracted using Qiagen RNeasy Mini kit (Qiagen). M-MLV Reverse transcriptase (Life Technologies) and SYBR Green master mix (Life Technologies) were used for reverse-transcription and real-time PCR. Primers used were: […]"}, "root growth": {"test_system": "root growth", "assay": "Root growth inhibition assays", "type": "in vivo, Arabidopsis", "conditions": "for concentrations of comparable potency in inhibiting root growth: COI1A384V plants; for concentrations with equivalent effect on root growth inhibition: wild-type Col-0 plants; for sensitivity of plants to COR vs MeJA: root growth inhibition, 0.2 μM COR vs 10 μM MeJA, in vivo", "procedure": "Col-0, segregating COI1-30, transgenic COI1WT, and COI1A384V seeds were surface-sterilized, cold-stratified, and germinated on half-strength MS agar media containing MeJA, COR, or DMSO at the indicated concentrations. Seedlings were grown under long-day light conditions (16-h light at 100 μE·m^2·s, and 8-h dark) for 10-12 days before scanning images of roots. Root lengths were measured using ImageJ software (see website at rsbweb.nih.gov/ij/)."}, "COI1-JAZ9 interaction [2]": {"test_system": "COI1-JAZ9 interaction", "assay": "Quantitative liquid Y2H assays (Beta-Glo, RLU)", "type": "cell-based, Arabidopsis", "conditions": "yeast"}, "COI1-JAZ9 interaction [3]": {"test_system": "COI1-JAZ9 interaction", "conditions": "Y2H; Thines et al., Melotto et al.; cited from earlier work"}, "Spodoptera exigua": {"test_system": "Spodoptera exigua", "assay": "Insect feeding assays", "type": "in vivo", "conditions": "for average weight of larvae feeding on COI1-30 plants higher than larvae reared on these plants: S. exigua neonate larvae", "procedure": "Insect bioassays were performed as described by Herde et al. (Methods Mol Biol 1011:51-61 (2013)). Briefly, eggs of Spodoptera exigua were obtained from Benzon Research, and four neonate Spodoptera exigua larvae were transferred to the center of each 6-wk-old Arabidopsis host plant. Plants were grown under 8-hour light (100 μE·m^2·s) and 16-h dark and covered with cup cages. Larval weights were determined after 9-12 days of feeding."}, "PR1 gene expression": {"test_system": "PR1 gene expression", "assay": "qPCR of SA-responsive gene PR1", "type": "in vivo, Arabidopsis", "conditions": "plants expressing the protein", "procedure": "as §1"}, "Pst DC3000": {"test_system": "Pst DC3000", "assay": "Bacterial infection assay, dip-inoculation", "type": "in vivo, Pseudomonas syringae pv tomato", "conditions": "3 days after dip-inoculation", "procedure": "(§2) The Pseudomonas syringae infection assays in Arabidopsis were performed as described by Yao et al. (Methods Mol Biol 1011:63-81 (2013)). In brief, 4- to 5-wk-old (12-h light/12-h dark) Arabidopsis plants were dip-inoculated with bacterial suspension (1×10^8 cfu/mL Pst DC3000 or Psm ES4326 in 0.25 mM MgCl2 solution with 0.025% Silwet-77) or syringe-infiltrated with bacterial suspension (1×10^6 cfu/mL Pst DC3118 or DB29 in 0.25 mM MgCl2 solution). Bacterial growth was determined by serial dilutions of plant extracts 3 or 4 days after inoculation. Homozygous COI1-30 plants were selected by genotyping before bacterial infection."}, "SID2 gene expression": {"test_system": "SID2 gene expression", "assay": "qPCR of SA-responsive gene SID2", "type": "in vivo, Arabidopsis", "conditions": "plants expressing the protein", "procedure": "as §1"}, "COI1-JAZ9 interaction [4]": {"test_system": "COI1-JAZ9 interaction", "assay": "Y2H assays on plates for protein-protein interaction", "type": "cell-based, Arabidopsis", "conditions": "10 μM COR, yeast"}, "Psm ES4326": {"test_system": "Psm ES4326", "assay": "Bacterial infection assay, dip-inoculation", "type": "in vivo, Pseudomonas syringae pv maculicola", "conditions": "3 days after dip-inoculation", "procedure": "as §2"}}, "note": "Entries after “also recorded” stand apart in the source; their conditions may differ.", "data": [{"molecule": "CC[C@H]1C=C(C(=O)N[C@@]2(C(=O)O)C[C@H]2CC)[C@H]2CCC(=O)[C@H]2C1", "note": "[COR, coronatine]", "values": [{"measurement": "higher concentration required for robust formation of the COI1A384V-JAZ9 co-receptor than for the COI1WT-JAZ9 co-receptor", "setting": "[1]", "result": "~100", "unit": "fold"}, {"measurement": "induction of JAZ9 expression compared with that in COI1-30 plants", "setting": "JAZ9 gene expression", "result": "eight-fold"}, {"measurement": "JAZ9 gene expression in response to treatment compared with Col-0 or COI1WT plants", "setting": "JAZ9 gene expression", "result": "significantly reduced"}, {"measurement": "JAZ9 gene expression after application", "setting": "JAZ9 gene expression", "result": "induced"}, {"measurement": "less effective in COI A384V than in Col-0 and COI1WT (root growth inhibition)", "setting": "root growth; 0.2 μM COR", "result": "about 100 fold"}, {"measurement": "concentrations of comparable potency in inhibiting root growth", "setting": "root growth", "result": 200, "unit": "nM"}, {"measurement": "concentrations with equivalent effect on root growth inhibition", "setting": "root growth", "result": 0.2, "unit": "µM"}, {"measurement": "concentrations equivalent in promoting the COI1-JAZ9 interaction", "setting": "COI1-JAZ9 interaction [2]; JA-Ile is a mixture of active and inactive isomers, COR pure", "result": 0.1, "unit": "µM"}]}, {"molecule": "CC/C=C\\C[C@H]1C(=O)CC[C@@H]1CC(=O)O", "note": "[JA, jasmonic acid]", "values": [{"measurement": "activity in yeast", "setting": "COI1-JAZ9 interaction [3]", "result": "not active"}]}, {"molecule": "CC/C=C\\CC1C(=O)CCC1CC(=O)OC", "note": "(stereo not drawn) [MeJA, methyl jasmonate]", "values": [{"measurement": "induction of JAZ9 expression compared with that in COI1-30 plants", "setting": "JAZ9 gene expression", "result": 38, "unit": "fold"}, {"measurement": "JAZ9 gene expression in response to treatment compared with Col-0 or COI1WT plants", "setting": "JAZ9 gene expression", "result": "less affected"}, {"measurement": "JAZ9 gene expression after application", "setting": "JAZ9 gene expression", "result": "induced"}, {"measurement": "activity in yeast", "setting": "COI1-JAZ9 interaction [3]", "result": "not active"}, {"measurement": "concentrations of comparable potency in inhibiting root growth", "setting": "root growth", "result": 100, "unit": "nM"}, {"measurement": "concentrations with equivalent effect on root growth inhibition", "setting": "root growth", "result": 10, "unit": "µM"}]}, {"molecule": "COI1WT: wild type COI1 (SEQ ID NO:1) expressed in COI1-30-null background; control transgenic lines", "values": [{"measurement": "weight of larvae compared with Col-0", "setting": "Spodoptera exigua; 12-day-old larvae, one-way ANOVA with Dunnett test", "result": "No significant difference"}, {"measurement": "average weight of larvae feeding on COI1-30 plants higher than larvae reared on these plants", "setting": "Spodoptera exigua", "result": "six-fold"}, {"measurement": "expression of PR1 gene", "setting": "PR1 gene expression", "result": "similarly low"}, {"measurement": "resistance / susceptibility to Pst DC3000 (bacterial growth and disease symptoms)", "setting": "Pst DC3000", "result": "highly susceptible"}, {"measurement": "expression of SID2 gene", "setting": "SID2 gene expression", "result": "similarly low"}]}, {"molecule": "B1", "values": [{"measurement": "COR-dependent COI1-JAZ9 interaction", "setting": "COI1-JAZ9 interaction [4]", "result": "reduced"}, {"measurement": "differential effect on JA-Ile-dependent vs COR-dependent COI1-JAZ9 interaction", "setting": "COI1-JAZ9 interaction [2]; liquid Y2H", "result": "affect JAIle-dependent interaction more than COR-dependent interaction"}]}, {"molecule": "B2", "values": [{"measurement": "average weight of larvae feeding on COI1-30 plants higher than larvae reared on these plants", "setting": "Spodoptera exigua", "result": "five-fold"}, {"measurement": "level of defense against S. exigua", "setting": "Spodoptera exigua; in vivo", "result": "almost wild-type levels"}, {"measurement": "expression of PR1 gene", "setting": "PR1 gene expression", "result": "similarly low"}, {"measurement": "resistance / susceptibility to Pst DC3000 (bacterial growth and disease symptoms)", "setting": "Pst DC3000", "result": "significantly increased resistance"}, {"measurement": "expression of SID2 gene", "setting": "SID2 gene expression", "result": "similarly low"}, {"measurement": "resistance to Psm ES4326 compared with Col-0 or COI1WT plants", "setting": "Psm ES4326", "result": "significantly increased resistance"}, {"measurement": "sensitivity of plants to COR vs MeJA", "setting": "root growth", "result": "significantly less sensitive; also recorded: differentially sensitive"}, {"measurement": "sensitivity of plants to COR vs MeJA", "setting": "root growth; listed as COI A384V", "result": "more sensitive"}, {"measurement": "COR-dependent COI1-JAZ9 interaction", "setting": "COI1-JAZ9 interaction [2]; liquid Y2H, 1 μM COR", "result": "greatly reduced"}, {"measurement": "JA-Ile-dependent COI1-JAZ9 interaction", "setting": "COI1-JAZ9 interaction [2]; liquid Y2H, 10 or 30 μM JA-Ile", "result": "less effect"}, {"measurement": "differential effect on JA-Ile-dependent vs COR-dependent COI1-JAZ9 interaction", "setting": "COI1-JAZ9 interaction [2]; liquid Y2H", "result": "preferably affects COR-dependent COI1-JAZ9 interaction"}]}]}
